10 compounds from patent US6825230B2, “Spiro and dispiro 1,2,4-trixolane antimalarials” (Medicines for Malaria Venture MMV, priority 2002, dated 2004) can be followed below.

Assay [1] has as its system chloroquine-sensitive NF54 strain of P. falciparum. In words: In vitro antimalarial semiautomated microdilution assay ([3H]-hypoxanthine incorporation), NF54 strain. It is filed as cell-based, Plasmodium falciparum. To be noted: Plasmodium falciparum. The procedure, abridged: (§1)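 Asynchronous stock-culture parasites (intraerythrocytic forms), serial compound dilutions; readout [3H]-hypoxanthine uptake; IC50 via Logit regression.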

Assay [2] deals with chloroquine-resistant K1 strain of P. falciparum. In words: In vitro antimalarial semiautomated microdilution assay ([3H]-hypoxanthine incorporation), K1 strain. Format: cell-based, Plasmodium falciparum. To be noted: Plasmodium falciparum. The procedure, abridged:
as §1

Assay [3] relates to ANKA strain of P. berghei. The experiment in a line: Single dose STI in vivo screen in infected mice. Also on record: species or system Plasmodium berghei. To be noted: for Survival (days) 10 mg/kg po: single 10 mg/kg po in 3% ethanol and 7% Tween 80; for Survival (days) 10 mg/kg po / Survival (days) 10 mg/kg SSV po / Survival (days) 10 mg/kg sc: untreated 6-7 days; for Activity (%) 10 mg/kg po: single 10 mg/kg po in 3% ethanol and 7% Tween 80 on day 1 post-infection; for Activity (%) 10 mg/kg po / Activity (%) 10 mg/kg SSV po / Activity (%) 10 mg/kg sc / Activity (%) 3 mg/kg SSV po: percent reduction in parasitemia on day 3; for Survival (days) 10 mg/kg SSV po: single 10 mg/kg po in SSV; for Activity (%) 10 mg/kg SSV po: single 10 mg/kg po in standard suspending vehicle (SSV) on day 1 post-infection; for Survival (days) 10 mg/kg sc: single 10 mg/kg sc in 3% ethanol and 7% Tween 80; for Activity (%) 10 mg/kg sc: single 10 mg/kg sc in 3% ethanol and 7% Tween 80 on day 1 post-infection; for Survival (days) 3 mg/kg SSV po / Activity (%) 3 mg/kg SSV po: single 3 mg/kg po in SSV.

Where [4] appears, read: chloroquine-sensitive NF54 strain, 72 h incubation, read-out: IC50 (ng/ml) NF54.
Where [5] appears, read: chloroquine-resistant K1 strain, 72 h incubation, read-out: IC50 (ng/ml) K1.
The mark [6] stands for this setting: NF54, 72 h, read-out: IC50 (ng/ml) NF54, chloroquine-sensitive NF54 strain, 72 h incubation.
[7] abbreviates: K1, 72 h, read-out: IC50 (ng/ml) K1, chloroquine-resistant K1 strain, 72 h incubation.

In brackets after ≈: the same amount, converted by molar mass. Where two headings read alike, the source gives them in different places.

Turning to `CN1CCN(C(=O)NC[C@H]2CC[C@]3(CC2)OOC2(O3)C3CC4CC(C3)CC2C4)CC1` (some centres unmarked) [OZ267], the IC50 in assay [1] (setting [4]) was determined as 0.34 ng/mL (≈ 0.81 nM). Also, in assay [2] (setting [5]), the IC50 worked out at 0.2 ng/mL (≈ 0.477 nM). Also, in assay [3], the “Survival (days) 10 mg/kg po” value is listed as 8.3 days, the “Activity (%) 10 mg/kg po” value worked out at 99.92%, the “Survival (days) 10 mg/kg SSV po” value was 8.7 days and the “Activity (%) 10 mg/kg SSV po” value was 99.89%. In assay [3], the “Survival (days) 10 mg/kg sc” value is given as 9.3 days and the “Activity (%) 10 mg/kg sc” value is recorded as 99.97%.

Regarding `NC(=O)C(=O)NC[C@H]1CC[C@]2(CC1)OOC1(O2)C2CC3CC(C2)CC1C3` (stereo partly drawn) [OZ268, N-(cis-Adamantane-2-spiro-3′-1′,2′,4′-trioxaspiro[4.5]decane-8′-methyl)oxamide], the IC50 in assay [1] (setting [4]) turned out to be 0.71 ng/mL (≈ 1.95 nM). Moreover, the IC50 in assay [2] (setting [5]) was 0.44 ng/mL (≈ 1.21 nM). Besides, in assay [3], the “Survival (days) 10 mg/kg po” value was found to be 9.3 days, the “Activity (%) 10 mg/kg po” value was determined as 99.86%, the “Survival (days) 10 mg/kg SSV po” value is given as 13.3 days and the “Activity (%) 10 mg/kg SSV po” value amounted to 99.47%. Further, in assay [3], the “Survival (days) 10 mg/kg sc” value is 9.7 days and the “Activity (%) 10 mg/kg sc” value turned out to be 99.92%.

`NC[C@H]1CC[C@@]2(CC1)OOC1(O2)C2CC3CC(C2)CC1C3` (some centres unmarked) [OZ269]: the IC50 in assay [1] (setting [4]) amounted to 0.61 ng/mL (≈ 2.08 nM). The IC50 in assay [2] (setting [5]) was 0.32 ng/mL (≈ 1.09 nM). Besides, in assay [3], the “Survival (days) 10 mg/kg po” value came to 10.7 days, the “Activity (%) 10 mg/kg po” value is on record as 98%, the “Survival (days) 10 mg/kg SSV po” value was 11.3 days and the “Activity (%) 10 mg/kg SSV po” value worked out at 86%. In addition, in assay [3], the “Survival (days) 10 mg/kg sc” value is 9.0 days and the “Activity (%) 10 mg/kg sc” value amounted to 99.92%.

With `O=C(NC[C@H]1CC[C@]2(CC1)OOC1(O2)C2CC3CC(C2)CC1C3)c1cccc[n+]1[O-]` (some centres unmarked) [OZ270], the IC50 in assay [1] (setting [4]) was 1.3 ng/mL (≈ 3.14 nM). For the same compound, the IC50 in assay [2] (setting [5]) stood at 0.85 ng/mL (≈ 2.05 nM). Further, in assay [3], the “Survival (days) 10 mg/kg po” value turned out to be 13.7 days, the “Activity (%) 10 mg/kg po” value was determined as 99.17%, the “Survival (days) 10 mg/kg SSV po” value worked out at 12.3 days and the “Activity (%) 10 mg/kg SSV po” value was found to be 99.47%. For the same compound, in assay [3], the “Survival (days) 10 mg/kg sc” value is 11.3 days and the “Activity (%) 10 mg/kg sc” value amounted to 99.81%.

As to `FC1(c2ccccc2)CCC2(CC1)OOC1(O2)C2CC3CC(C2)CC1C3` (centres unmarked) [OZ274], in assay [1] (setting [6]), the IC50 amounted to 5.7 ng/mL (≈ 15.9 nM). Further, the IC50 in assay [2] (setting [7]) turned out to be 5.1 ng/mL (≈ 14.2 nM). Moreover, in assay [3], the “Survival (days) 10 mg/kg SSV po” value is given as 7.0/ND days and the “Activity (%) 10 mg/kg SSV po” value is recorded as 11/ND %.

Take `OC1(Cc2ccccn2)CCC2(CC1)OOC1(O2)C2CC3CC(C2)CC1C3` (centres unmarked) [OZ275]: the IC50 worked out at 0.74 ng/mL (≈ 1.99 nM) in assay [1] (setting [6]) and 0.66 ng/mL (≈ 1.78 nM) in assay [2] (setting [7]). Also, the “Survival (days) 10 mg/kg SSV po” value in assay [3] is reported as 7.3/ND days. Also, the “Activity (%) 10 mg/kg SSV po” value in assay [3] is listed as 68/ND %.

Turning to `O=C(C[C@H]1CC[C@]2(CC1)OO[C@]1(O2)C2CC3CC(C2)CC1C3)Nc1nnn[nH]1` [OZ278], the figures for the IC50 in assay [1] (setting [6]) and in assay [2] (setting [7]) were 39 ng/mL (≈ 100 nM) and 23 ng/mL (≈ 59.1 nM), respectively. Besides, the “Survival (days) 10 mg/kg SSV po” value in assay [3] is listed as 7.3/ND days. Besides, in assay [3], the “Activity (%) 10 mg/kg SSV po” value is 56/ND %.

Take `O=C1CN(C[C@H]2CC[C@]3(CC2)OOC2(O3)C3CC4CC(C3)CC2C4)CCN1` (some centres unmarked) [OZ285]: the IC50 in assay [1] (setting [4]) stood at 1.8 ng/mL (≈ 4.78 nM). For the same compound, in assay [2] (setting [5]), the IC50 was 1.3 ng/mL (≈ 3.45 nM). Further, in assay [3], the “Survival (days) 3 mg/kg SSV po” value amounted to 7.6 days, the “Activity (%) 3 mg/kg SSV po” value came out at 72%, the “Survival (days) 10 mg/kg SSV po” value came to 8.7 days and the “Activity (%) 10 mg/kg SSV po” value is 99.81%.

For the compound `CC(C)(N)CNC[C@H]1CC[C@]2(CC1)OOC1(O2)C2CC3CC(C2)CC1C3` (some centres unmarked) [OZ287], the IC50 in assay [1] (setting [4]) was determined as 0.83 ng/mL (≈ 2.28 nM). In assay [2] (setting [5]), the IC50 amounted to 0.49 ng/mL (≈ 1.34 nM). Moreover, in assay [3], the “Survival (days) 3 mg/kg SSV po” value was 7.2 days, the “Activity (%) 3 mg/kg SSV po” value is recorded as 68%, the “Survival (days) 10 mg/kg SSV po” value is 8.3 days and the “Activity (%) 10 mg/kg SSV po” value came to 95%.

On to `Oc1ccc([C@H]2CC[C@]3(CC2)OOC2(O3)C3CC4CC(C3)CC2C4)cc1` (some centres unmarked) [OZ288], for which the IC50 in assay [1] (setting [4]) came out at 2.7 ng/mL (≈ 7.57 nM). In addition, in assay [2] (setting [5]), the IC50 was 1.7 ng/mL (≈ 4.77 nM). In addition, in assay [3], the “Survival (days) 3 mg/kg SSV po” value is recorded as 8.0 days, the “Activity (%) 3 mg/kg SSV po” value was 82%, the “Survival (days) 10 mg/kg SSV po” value was determined as 11.0 days and the “Activity (%) 10 mg/kg SSV po” value stood at 99.96%.
